Legend:
Type in all cases: biochemical
[1] = biological target: T1, calpain-I isolated from human erythrocytes (Homo sapiens, UniProt P07384); assay: Calpain I enzyme inhibition in vitro (kinetic fluorescence assay); conditions: apparent Ki from IC50 (Cheng-Prussoff); 20 nM calpain-I, 100 μM Suc-Leu-Tyr-AMC, pH 7.3, room temperature
T1 construct: calpain-I—isolated from human erythrocytes; purchased Calbiochem 208713; host or cells: human erythrocytes (tissue-derived)
T1 sequence (P07384 1-714): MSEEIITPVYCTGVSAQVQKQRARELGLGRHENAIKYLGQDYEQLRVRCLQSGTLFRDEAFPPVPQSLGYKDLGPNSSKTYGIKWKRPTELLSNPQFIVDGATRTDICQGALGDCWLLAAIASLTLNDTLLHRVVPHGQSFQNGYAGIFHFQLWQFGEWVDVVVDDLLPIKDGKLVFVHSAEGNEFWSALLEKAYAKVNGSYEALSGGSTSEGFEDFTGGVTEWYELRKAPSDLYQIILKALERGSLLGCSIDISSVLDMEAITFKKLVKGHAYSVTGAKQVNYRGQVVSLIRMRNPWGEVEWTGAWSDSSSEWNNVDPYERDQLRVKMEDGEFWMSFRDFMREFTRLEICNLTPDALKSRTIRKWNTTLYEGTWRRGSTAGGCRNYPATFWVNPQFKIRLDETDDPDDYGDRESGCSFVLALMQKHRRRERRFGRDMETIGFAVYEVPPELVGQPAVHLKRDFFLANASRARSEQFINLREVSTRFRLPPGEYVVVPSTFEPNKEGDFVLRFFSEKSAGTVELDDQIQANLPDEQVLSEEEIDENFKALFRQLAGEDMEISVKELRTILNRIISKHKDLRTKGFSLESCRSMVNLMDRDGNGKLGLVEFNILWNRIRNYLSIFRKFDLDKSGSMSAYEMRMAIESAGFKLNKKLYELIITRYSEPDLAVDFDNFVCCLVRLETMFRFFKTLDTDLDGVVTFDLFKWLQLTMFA
T1 sequence (P04632 1-268 partner): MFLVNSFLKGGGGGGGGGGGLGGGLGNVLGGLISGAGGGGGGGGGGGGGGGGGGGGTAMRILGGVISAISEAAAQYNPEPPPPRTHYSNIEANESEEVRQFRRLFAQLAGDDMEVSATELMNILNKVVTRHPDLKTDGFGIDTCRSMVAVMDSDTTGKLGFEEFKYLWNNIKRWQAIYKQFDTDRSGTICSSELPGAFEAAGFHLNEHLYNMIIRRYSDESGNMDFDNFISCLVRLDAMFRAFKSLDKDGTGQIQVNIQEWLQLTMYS
Outline: (§1)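 Kinetic AMC fluorescence (ex 390/em 460 nm), room temperature. Calpain-I 20 nM, 100 μM Suc-Leu-Tyr-AMC, imidazole/CaCl2 pH 7.3; cathepsins B 0.25 nM/100 μM Z-Phe-Arg-AMC, K 3 nM/10 μM Z-Gly-Pro-Arg-AMC, S 0.5 nM/20 μM Z-Val-Val-Arg-AMC, each MES/EDTA/cysteine pH 6.0. Ki from IC50 via Cheng-Prusoff, averaging 2–4 curves.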

[2] = biological target: T2, cathepsin L isolated from human liver (Homo sapiens, UniProt P07711); assay: Cathepsin L enzyme inhibition in vitro (kinetic fluorescence assay); conditions: Ki(cathepsin L)/Ki(calpain) ratio
T2 construct: cathepsin L—isolated from human liver; purchased Calbiochem 219402; host or cells: human liver (tissue-derived)
T2 sequence (P07711 114-333): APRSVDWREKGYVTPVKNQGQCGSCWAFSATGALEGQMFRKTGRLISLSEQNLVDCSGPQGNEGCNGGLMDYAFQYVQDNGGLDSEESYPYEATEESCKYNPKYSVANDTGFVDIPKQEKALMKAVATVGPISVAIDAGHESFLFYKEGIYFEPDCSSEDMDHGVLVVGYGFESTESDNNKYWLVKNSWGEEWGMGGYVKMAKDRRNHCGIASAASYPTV
Procedure: Testing for blockade of the corresponding enzymic activities was carried out by means of kinetic fluorescence assays (excitation 390 nm, emission 460 nm).
Apparent Ki values were calculated from the experimentally determined IC50 values by the Cheng-Prussoff relation assuming a reversible competitive enzyme inhibition. The Km values of the substrates used under the assay conditions indicated above were: 90 μM (Z-Phe-Arg-AMC, cathepsin B), 10 μM (Z-Gly-Pro-Arg-AMC, cathepsin K), 2 μM (Z-Phe-Arg-AMC, cathepsin L), and 30 μM (Z-Val-Val-Arg-AMC, cathepsin S).
The indicated Ki values are averages of the inhibition constants calculated on the basis of 2 to 4 independent dose-effect plots.
• 20 nM calpain-I—isolated from human erythrocytes (Calbiochem #208713), 100 μM Suc-Leu-Tyr-AMC (Bachem #I-1355) as substrate in buffer with 62 mM imidazole, 0.3 mM CaCl2, 0.10% CHAPS, 0.05% BSA, 1 mM DTT at pH 7.3 and room temperature. 1. Cathepsin B: • 0.25 nM cathepsin B—isolated from human liver (Calbiochem #219362), 100 μM Z-Phe-Arg-AMC (Bachem #I-1160) as substrate 50 mM MES, 2 mM EDTA, 0.05% Brij 35, 2.5 mM L-cysteine, pH 6.0, room temperature. 3. Cathepsin K: • 3 nM cathepsin K activated from recombinant human procathepsin K from E. coli (Calbiochem #342001), 10 μM Z-Gly-Pro-Arg-AMC (Biomol #P-142) as substrate in 50 mM MES, 2 mM EDTA, 0.05% Brij 35, 2.5 mM L-cysteine, pH 6.0, room temperature. 4. Cathepsin L: • 1 nM cathepsin L—isolated from human liver (Calbiochem #219402), 2 μM Z-Phe-Arg-AMC (Bachem #I-1160) as substrate in 50 mM MES, 2 mM EDTA, 0.05% Brij 35, 2.5 mM L-cysteine, pH 6.0, room temperature. 5. Cathepsin S: • 0.5 nM recombinant human cathepsin S from E. coli (Calbiochem #219343), 20 μM Z-Val-Val-Arg-AMC (Bachem #I-1540) as substrate in 50 mM MES, 2 mM EDTA, 0.05% Brij 35, 2.5 mM L-cysteine, pH 6.0, room temperature.

[3] = biological target: T3, recombinant human cathepsin S (Homo sapiens, UniProt P25774); assay: Cathepsin S enzyme inhibition in vitro (kinetic fluorescence assay); conditions: Ki(cathepsin S)/Ki(calpain) ratio
T3 construct: purchased Calbiochem 219343; host or cells: E. coli
T3 sequence (P25774 115-331): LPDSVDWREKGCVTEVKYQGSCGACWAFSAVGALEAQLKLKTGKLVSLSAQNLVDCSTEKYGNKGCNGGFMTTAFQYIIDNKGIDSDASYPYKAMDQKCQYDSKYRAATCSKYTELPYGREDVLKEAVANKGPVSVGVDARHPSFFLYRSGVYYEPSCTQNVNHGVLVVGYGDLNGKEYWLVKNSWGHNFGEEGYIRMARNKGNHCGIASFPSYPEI
Outline: as §1

[4] = biological target: T4, cathepsin B isolated from human liver (Homo sapiens, UniProt P07858); assay: Cathepsin B enzyme inhibition in vitro (kinetic fluorescence assay); conditions: Ki(cathepsin B)/Ki(calpain) ratio
T4 construct: cathepsin B—isolated from human liver; purchased Calbiochem 219362; host or cells: human liver (tissue-derived)
Outline: as §1

[5] = biological target: T5, cathepsin K activated from recombinant human procathepsin K (Homo sapiens, UniProt P43235); assay: Cathepsin K enzyme inhibition in vitro (kinetic fluorescence assay); conditions: Ki(cathepsin K)/Ki(calpain) ratio
T5 construct: purchased Calbiochem 342001; host or cells: E. coli
T5 sequence (P43235 115-329): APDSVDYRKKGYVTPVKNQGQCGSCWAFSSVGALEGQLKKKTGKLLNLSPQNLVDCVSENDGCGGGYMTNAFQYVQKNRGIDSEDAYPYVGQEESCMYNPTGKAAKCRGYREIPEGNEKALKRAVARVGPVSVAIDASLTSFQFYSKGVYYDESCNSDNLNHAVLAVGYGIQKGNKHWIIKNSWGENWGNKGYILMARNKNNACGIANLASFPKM
Outline: as §1

O=C(NC1CC1)C(=O)C(Cc1ccccc1)NC(=O)[C@H]1CCC(=O)N1Cc1c(Cl)cccc1Cl (mixture of isomers) [Example 61, (2R)—N-(4-(Cyclopropylamino)-3,4-dioxo-1-phenylbutan-2-yl)-1-(2,6-dichlorobenzyl)-5-oxopyrrolidine-2-carboxamide]
Ki [1]: 100 to 600 nM | Sel cat. L [2]: +++ (Ki(cathepsin L)/Ki(calpain) ratio of >30) | Sel cat. S [3]: +++ (Ki(cathepsin S)/Ki(calpain) ratio of >100) | Sel cat. B [4]: + (5<Ki(cathepsin B)/Ki(calpain)≦10) | Sel cat. K [5]: +++ (Ki(cathepsin K)/Ki(calpain) ratio of >30)

O=C(Nc1ccccc1)C(=O)C(Cc1ccccc1)NC(=O)[C@H]1CCC(=O)N1Cc1ccccc1 (mixture of isomers) [Example 65, (2R)-1-Benzyl-N-(3,4-dioxo-1-phenyl-4-(phenylamino)butan-2-yl)-5-oxopyrrolidine-2-carboxamide]
Ki [1]: 50 to 100 nM | Sel cat. L [2]: +++ (Ki(cathepsin L)/Ki(calpain) ratio of >30) | Sel cat. S [3]: +++ (Ki(cathepsin S)/Ki(calpain) ratio of >100) | Sel cat. B [4]: +++ (Ki(cathepsin B)/Ki(calpain) ratio of >30) | Sel cat. K [5]: +++ (Ki(cathepsin K)/Ki(calpain) ratio of >30)

NC(=O)C(=O)C(Cc1ccccc1)NC(=O)[C@H]1CCC(=O)N1Cc1ccccc1 (mixture of isomers) [Example 1, (2R)—N-(4-Amino-3,4-dioxo-1-phenylbutan-2-yl)-1-benzyl-5-oxopyrrolidine-2-carboxamide]
Ki [1]: < 50 nM | Sel cat. L [2]: ++ (10<Ki(cathepsin B)/Ki(calpain)≦30) | Sel cat. S [3]: +++ (Ki(cathepsin S)/Ki(calpain) ratio of >100) | Sel cat. B [4]: ++ (10<Ki(cathepsin B)/Ki(calpain)≦30) | Sel cat. K [5]: ++ (10<Ki(cathepsin B)/Ki(calpain)≦30)

O=C(NCc1ncco1)C(=O)C(Cc1ccccc1)NC(=O)[C@H]1CCC(=O)N1Cc1ccccc1 (stereo partly drawn) [Example 64, (2R)-1-Benzyl-N-(4-(oxazol-2-ylmethylamino)-3,4-dioxo-1-phenylbutan-2-yl)-5-oxopyrrolidine-2-carboxamide]
Ki [1]: 100 to 600 nM | Sel cat. L [2]: ++ (10<Ki(cathepsin B)/Ki(calpain)≦30) | Sel cat. S [3]: +++ (Ki(cathepsin S)/Ki(calpain) ratio of >100) | Sel cat. B [4]: ++ (10<Ki(cathepsin B)/Ki(calpain)≦30) | Sel cat. K [5]: +++ (Ki(cathepsin K)/Ki(calpain) ratio of >30)

O=C(NCc1ccc(F)cc1)C(=O)C(Cc1ccccc1)NC(=O)[C@H]1CCC(=O)N1Cc1ccccc1 (mixture of isomers) [Example 67, (2R)-1-Benzyl-N-(4-(4-fluorobenzylamino)-3,4-dioxo-1-phenylbutan-2-yl)-5-oxopyrrolidine-2-carboxamide]
Ki [1]: < 50 nM | Sel cat. L [2]: +++ (Ki(cathepsin L)/Ki(calpain) ratio of >30) | Sel cat. S [3]: +++ (Ki(cathepsin S)/Ki(calpain) ratio of >100) | Sel cat. B [4]: +++ (Ki(cathepsin B)/Ki(calpain) ratio of >30) | Sel cat. K [5]: +++ (Ki(cathepsin K)/Ki(calpain) ratio of >30)

NC(=O)C(=O)C(Cc1ccccc1)NC(=O)[C@H]1CCC(=O)N1Cc1ccccc1C(F)(F)F (stereo partly drawn) [Example 17, (2R)—N-(4-Amino-3,4-dioxo-1-phenylbutan-2-yl)-5-oxo-1-[2-(trifluoromethyl)benzyl]-pyrrolidine-2-carboxamide]
Ki [1]: 50 to 100 nM | Sel cat. L [2]: +++ (Ki(cathepsin L)/Ki(calpain) ratio of >30) | Sel cat. S [3]: +++ (Ki(cathepsin S)/Ki(calpain) ratio of >100) | Sel cat. B [4]: ++ (10<Ki(cathepsin B)/Ki(calpain)≦30) | Sel cat. K [5]: +++ (Ki(cathepsin K)/Ki(calpain) ratio of >30)

NC(=O)C(=O)C(Cc1ccccc1)NC(=O)[C@H]1CCC(=O)N1Cc1c(F)cccc1F (stereo partly drawn) [Example 51, (2R)—N-(4-Amino-3,4-dioxo-1-phenylbutan-2-yl)-5-oxo-1-(2,6-difluorobenzyl)-pyrrolidine-2-carboxamide]
Ki [1]: 50 to 100 nM | Sel cat. L [2]: ++ (10<Ki(cathepsin B)/Ki(calpain)≦30) | Sel cat. S [3]: +++ (Ki(cathepsin S)/Ki(calpain) ratio of >100) | Sel cat. B [4]: ++ (10<Ki(cathepsin B)/Ki(calpain)≦30) | Sel cat. K [5]: +++ (Ki(cathepsin K)/Ki(calpain) ratio of >30)

CCNC(=O)C(=O)C(Cc1ccccc1)NC(=O)[C@H]1CCC(=O)N1Cc1ccccc1Cl (mixture of isomers) [Example 47, (2R)-1-(2-Chlorobenzyl)-N-(4-(ethylamino)-3,4-dioxo-1-phenylbutan-2-yl)-5-oxopyrrolidine-2-carboxamide]
Ki [1]: 100 to 600 nM | Sel cat. L [2]: +++ (Ki(cathepsin L)/Ki(calpain) ratio of >30) | Sel cat. S [3]: ++ (30<Ki(cathepsin B)/Ki(calpain)≦100) | Sel cat. B [4]: +++ (Ki(cathepsin B)/Ki(calpain) ratio of >30) | Sel cat. K [5]: +++ (Ki(cathepsin K)/Ki(calpain) ratio of >30)

O=C(NCc1nccs1)C(=O)C(Cc1ccccc1)NC(=O)[C@H]1CCC(=O)N1Cc1ccccc1 (mixture of isomers) [Example 59, (2R)-1-Benzyl-N-(3,4-dioxo-1-phenyl-4-(thiazol-2-ylmethylamino)butan-2-yl)-5-oxopyrrolidine-2-carboxamide]
Ki [1]: 100 to 600 nM | Sel cat. L [2]: ++ (10<Ki(cathepsin B)/Ki(calpain)≦30) | Sel cat. S [3]: +++ (Ki(cathepsin S)/Ki(calpain) ratio of >100) | Sel cat. B [4]: +++ (Ki(cathepsin B)/Ki(calpain) ratio of >30) | Sel cat. K [5]: +++ (Ki(cathepsin K)/Ki(calpain) ratio of >30)

O=C(NCc1ccc2c(c1)OCO2)C(=O)C(Cc1ccccc1)NC(=O)[C@H]1CCC(=O)N1Cc1ccccc1 (mixture of isomers) [Example 66, (2R)—N-(4-(Benzo[d][1,3]-dioxol-5-ylmethylamino)-3,4-dioxo-1-phenylbutan-2-yl)-1-benzyl-5-oxopyrrolidine-2-carboxamide]
Ki [1]: 50 to 100 nM | Sel cat. L [2]: ++ (10<Ki(cathepsin B)/Ki(calpain)≦30) | Sel cat. S [3]: +++ (Ki(cathepsin S)/Ki(calpain) ratio of >100) | Sel cat. B [4]: +++ (Ki(cathepsin B)/Ki(calpain) ratio of >30) | Sel cat. K [5]: ++ (10<Ki(cathepsin B)/Ki(calpain)≦30)

From US9018206B2, “Carboxamide compounds and their use as calpain inhibitors” (AbbVie Deutschland GmbH & Co. KG, priority 2009, dated 2015)
